Measured values as given in ChEMBL document CHEMBL5360523, “Ligand- and structure-based identification of novel CDK9 inhibitors for the potential treatment of leukemia” (Bioorg Med Chem, 2022).
The source made the active and inactive calls. The calls are words filed in the database; no cut-off is given here.

What was measured:
[1] = tested on: MOLM-13; assay: Antiproliferative activity against human MOLM-13 cells assessed as inhibition of cell viability incubated for 48 hrs by CCK8 method; format: functional, cell-based; details: MOLM-13, 48 h
[2] = tested on: MDA-MB-231; assay: Antiproliferative activity against human MDA-MB-231 cells assessed as inhibition of cell viability incubated for 48 hrs by CCK8 method; format: functional, cell-based; details: MDA-MB-231, 48 h
[3] = tested on: HeLa; assay: Antiproliferative activity against human HeLa cells assessed as inhibition of cell viability incubated for 48 hrs by CCK8 method; format: functional, cell-based
[4] = tested on: CNE-2; assay: Antiproliferative activity against human CNE-2 cells assessed as inhibition of cell viability incubated for 48 hrs by CCK8 method; format: functional, cell-based; details: CNE-2, 48 h
[5] = tested on: A549; assay: Antiproliferative activity against human A549 cells assessed as inhibition of cell viability incubated for 48 hrs by CCK8 method; format: functional, cell-based; details: A549, 48 h
[6] = tested on: MCF7; assay: Antiproliferative activity against human MCF7 cells assessed as inhibition of cell viability incubated for 48 hrs by CCK8 method; format: functional, cell-based; details: MCF7, 48 h
[7] = tested on: HepG2; assay: Antiproliferative activity against human HepG2 cells assessed as inhibition of cell viability incubated for 48 hrs by CCK8 method; format: functional, cell-based; details: HepG2, 48 h
[8] = tested on: HCT-116; assay: Antiproliferative activity against human HCT-116 cells assessed as inhibition of cell viability incubated for 48 hrs by CCK8 method; format: functional, cell-based; details: HCT-116, 48 h
[9] = tested on: MOLM-13; assay: Induction of apoptosis in human MOLM-13 cells assessed as viable cells at 10 uM incubated for 24 hrs by Annexin V-FITC and propidium iodide staining based flow cytometry analysis (reference value: 92.7%); format: functional; details: read-out: Activity
[10] = tested on: MOLM-13; assay: Induction of apoptosis in human MOLM-13 cells assessed as early apoptotic cells at 10 uM incubated for 24 hrs by Annexin V-FITC and propidium iodide staining based flow cytometry analysis (reference value: 2.86%); format: functional
[11] = tested on: MOLM-13; assay: Induction of apoptosis in human MOLM-13 cells assessed as late apoptotic cells at 10 uM incubated for 24 hrs by Annexin V-FITC and propidium iodide staining based flow cytometry analysis (reference value: 3.65%); format: functional
[12] = tested on: MOLM-13; assay: Induction of apoptosis in human MOLM-13 cells assessed as necrotic cells at 10 uM incubated for 24 hrs by Annexin V-FITC and propidium iodide staining based flow cytometry analysis (reference value: 0.84%); format: functional
[13] = biological target: T1, Cyclin-dependent kinase 9 (Homo sapiens, UniProt P50750); assay: Inhibition of CDK9 (unknown origin) at 20 uM incubated for 10 mins relative to control
T1 sequence (P50750 whole entry): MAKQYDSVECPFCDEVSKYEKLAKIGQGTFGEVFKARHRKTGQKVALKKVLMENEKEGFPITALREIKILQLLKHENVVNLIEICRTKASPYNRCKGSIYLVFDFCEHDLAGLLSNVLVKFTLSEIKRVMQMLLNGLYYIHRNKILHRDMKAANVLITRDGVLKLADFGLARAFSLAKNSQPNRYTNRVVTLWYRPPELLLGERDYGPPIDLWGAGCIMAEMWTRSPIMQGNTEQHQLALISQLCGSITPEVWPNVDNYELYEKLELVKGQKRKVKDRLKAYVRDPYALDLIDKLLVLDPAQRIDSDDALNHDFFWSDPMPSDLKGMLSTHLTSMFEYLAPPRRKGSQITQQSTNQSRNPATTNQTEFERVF

[14] = biological target: T1, Cyclin-dependent kinase 9; assay: Inhibition of CDK9 (unknown origin) incubated for 10 mins
[15] = biological target: T1, Cyclin-dependent kinase 9; assay: Inhibition of CDK9 in human MOLM-13 cells assessed as suppression of p-RNAP II CTD (Ser2 residue) phosphorylation incubated for 24 hrs by Western blot analysis; format: cell-based; details: dose 10-25 µM
[16] = biological target: T1, Cyclin-dependent kinase 9; assay: Inhibition of CDK9 in human MOLM-13 cells assessed as decrease in Mcl-1 expression incubated for 24 hrs by Western blot analysis; format: cell-based; details: dose 10-25 µM
[17] = biological target: T1, Cyclin-dependent kinase 9; assay: Inhibition of CDK9 in human MOLM-13 cells assessed as increase in cleaved PARP level at 10 to 25 uM incubated for 24 hrs by Western blot analysis; format: cell-based; details: dose 10-25 µM
[18] = tested on: MOLM-13; assay: Induction of apoptosis in human MOLM-13 cells assessed as viable cells at 2.5 uM incubated for 24 hrs by Annexin V-FITC and propidium iodide staining based flow cytometry analysis (reference value: 92.7%); format: functional; details: read-out: Activity
[19] = tested on: MOLM-13; assay: Induction of apoptosis in human MOLM-13 cells assessed as viable cells at 5 uM incubated for 24 hrs by Annexin V-FITC and propidium iodide staining based flow cytometry analysis (reference value: 92.7%); format: functional; details: read-out: Activity
[20] = tested on: MOLM-13; assay: Induction of apoptosis in human MOLM-13 cells assessed as early apoptotic cells at 2.5 uM incubated for 24 hrs by Annexin V-FITC and propidium iodide staining based flow cytometry analysis (reference value: 2.86%); format: functional
[21] = tested on: MOLM-13; assay: Induction of apoptosis in human MOLM-13 cells assessed as early apoptotic cells at 5 uM incubated for 24 hrs by Annexin V-FITC and propidium iodide staining based flow cytometry analysis (reference value: 2.86%); format: functional
[22] = tested on: MOLM-13; assay: Induction of apoptosis in human MOLM-13 cells assessed as late apoptotic cells at 2.5 uM incubated for 24 hrs by Annexin V-FITC and propidium iodide staining based flow cytometry analysis (reference value: 3.65%); format: functional
[23] = tested on: MOLM-13; assay: Induction of apoptosis in human MOLM-13 cells assessed as late apoptotic cells at 5 uM incubated for 24 hrs by Annexin V-FITC and propidium iodide staining based flow cytometry analysis (reference value: 3.65%); format: functional
[24] = tested on: MOLM-13; assay: Induction of apoptosis in human MOLM-13 cells assessed as necrotic cells at 2.5 uM incubated for 24 hrs by Annexin V-FITC and propidium iodide staining based flow cytometry analysis (reference value: 0.84%); format: functional
[25] = tested on: MOLM-13; assay: Induction of apoptosis in human MOLM-13 cells assessed as necrotic cells at 5 uM incubated for 24 hrs by Annexin V-FITC and propidium iodide staining based flow cytometry analysis (reference value: 0.84%); format: functional
[26] = tested on: MOLM-13; assay: Induction of apoptosis in human MOLM-13 cells incubated for 24 hrs by Annexin V-FITC and propidium iodide staining based flow cytometry analysis; format: functional, cell-based; details: dose 2.5-10 µM
[27] = Stability in rat liver microsomes assessed as compound remaining measured upto 3 hrs by HPLC analysis; format: ADME, Microsome; details: read-out: Stability
[28] = Stability in human plasma assessed as compound remaining measured upto 4 hrs by HPLC analysis; format: ADME, cell-free; details: read-out: Stability
[29] = Stability of the compound in artificial gastric fluid assessed as compound remaining measured upto 8 hrs by HPLC analysis; format: ADME; details: read-out: Stability
[30] = Stability of the compound in artificial intestinal fluid assessed as compound remaining measured upto 8 hrs by HPLC analysis; format: ADME; details: read-out: Stability

Row | SMILES | IC50 [1] | IC50 [2] | IC50 [3] | IC50 [5] | IC50 [6] | IC50 [7] | IC50 [8] | inhibition [13] | IC50 [14] | remaining at 3 h [27] | remaining at 4 h [28] | remaining at 8 h [29] | remaining at 8 h [30] | IC50 [4] | other results
1 | O=C(Cn1cc(Br)c(=O)n(CC(=O)Nc2ccc(Br)cn2)c1=O)Nc1ccc(Br)cn1 | 11.8 µM | 8.34 µM | 6.61 µM | 15.3 µM | 6.14 µM | > 50 µM | 3.22 µM | 76.4% | 0.219 µM | > 90% | > 90% | > 90% | > 90% | 28.3 µM | –
2 | Nc1nc(NCCc2ccccc2)nc(-c2cc(Cl)ccc2O)n1 | 4.58 µM | 14.5 µM | 25.1 µM | 28.2 µM | 29 µM | 29 µM | > 50 µM | 92.2% | 0.504 µM | > 90% | > 90% | > 90% | > 90% | > 50 µM | –
3 | CCNc1nc(N)nc(-c2cc(Cl)ccc2O)n1 | 15.2 µM | 21.2 µM | 7.38 µM | > 50 µM | 18.9 µM | 49.2 µM | 26.6 µM | 93.7% | 0.335 µM | – | – | – | – | 30.4 µM | –
4 | CCCCNc1nc(N)nc(-c2cc(Cl)ccc2O)n1 | 13.5 µM | 16 µM | 13.7 µM | 19.2 µM | 11.3 µM | 40.9 µM | 27.2 µM | 93.6% | 0.214 µM | – | – | – | – | 17 µM | –

Stronger by IC50 [1], values ahead:

Row | IC50 [1] | IC50 [2] | IC50 [3] | IC50 [5] | IC50 [6] | IC50 [7] | IC50 [8] | inhibition [13] | IC50 [14] | remaining at 3 h [27] | remaining at 4 h [28] | remaining at 8 h [29] | remaining at 8 h [30] | SMILES | IC50 [4] | other results
5 | 0.07 µM | 0.06 µM | 0.15 µM | 0.1 µM | 0.71 µM | 0.56 µM | 0.03 µM | – | – | – | – | – | – | CN1CC[C@H](c2c(O)cc(O)c3c(=O)cc(-c4ccccc4Cl)oc23)[C@H](O)C1 [ALVOCIDIB] | 0.12 µM | viability at 10 µM [9]: 44.5%; Activity [10]: 25.5%; Activity [11]: 7.81%; Activity [12]: 22.3%
6 | 2.52 µM | 28.2 µM | 29.4 µM | > 50 µM | 20.9 µM | 19.8 µM | 15.6 µM | 22.7% | – | – | – | – | – | O=C(NCCc1c[nH]c2ccc(Cl)cc12)c1cc(-c2cccnc2)n[nH]1 | 17.1 µM | –
7 | 3.92 µM | 11.7 µM | 2.53 µM | > 50 µM | 23.5 µM | > 50 µM | 22.2 µM | 88.4% | 0.295 µM | > 90% | > 90% | > 90% | > 90% | Nc1nc(Nc2ccccc2)nc(-c2cc(Cl)ccc2O)n1 | 34.5 µM | inhibition [15]: Dose-Dependent Effect; inhibition [16]: Dose-Dependent Effect; inhibition [17]: Active; viability at 2.5 µM [18]: 92.1%; viability at 5 µM [19]: 90.9%; viability at 10 µM [9]: 87.1%; Activity [20]: 3.2%; Activity [21]: 3.97%; Activity [10]: 6.13%; Activity [22]: 3.88%; Activity [23]: 3.96%; Activity [11]: 5.43%; Activity [24]: 0.77%; Activity [25]: 1.12%; Activity [12]: 1.38%; Activity [26]: Dose-Dependent Effect
